The target in assay [1] is T1, 6His-Tev-LRRK2 (1326-2527) (Homo sapiens, UniProt Q5S007).
T1 construct: A LRRK2 cDNA encoding residues 1326-2527 was received from Dundee University; made in house; host or cells: Spodoptera frugiperda (Sf9) insect cells, baculovirus (pFB-HTb)
T1 sequence (Q5S007 1326-2527): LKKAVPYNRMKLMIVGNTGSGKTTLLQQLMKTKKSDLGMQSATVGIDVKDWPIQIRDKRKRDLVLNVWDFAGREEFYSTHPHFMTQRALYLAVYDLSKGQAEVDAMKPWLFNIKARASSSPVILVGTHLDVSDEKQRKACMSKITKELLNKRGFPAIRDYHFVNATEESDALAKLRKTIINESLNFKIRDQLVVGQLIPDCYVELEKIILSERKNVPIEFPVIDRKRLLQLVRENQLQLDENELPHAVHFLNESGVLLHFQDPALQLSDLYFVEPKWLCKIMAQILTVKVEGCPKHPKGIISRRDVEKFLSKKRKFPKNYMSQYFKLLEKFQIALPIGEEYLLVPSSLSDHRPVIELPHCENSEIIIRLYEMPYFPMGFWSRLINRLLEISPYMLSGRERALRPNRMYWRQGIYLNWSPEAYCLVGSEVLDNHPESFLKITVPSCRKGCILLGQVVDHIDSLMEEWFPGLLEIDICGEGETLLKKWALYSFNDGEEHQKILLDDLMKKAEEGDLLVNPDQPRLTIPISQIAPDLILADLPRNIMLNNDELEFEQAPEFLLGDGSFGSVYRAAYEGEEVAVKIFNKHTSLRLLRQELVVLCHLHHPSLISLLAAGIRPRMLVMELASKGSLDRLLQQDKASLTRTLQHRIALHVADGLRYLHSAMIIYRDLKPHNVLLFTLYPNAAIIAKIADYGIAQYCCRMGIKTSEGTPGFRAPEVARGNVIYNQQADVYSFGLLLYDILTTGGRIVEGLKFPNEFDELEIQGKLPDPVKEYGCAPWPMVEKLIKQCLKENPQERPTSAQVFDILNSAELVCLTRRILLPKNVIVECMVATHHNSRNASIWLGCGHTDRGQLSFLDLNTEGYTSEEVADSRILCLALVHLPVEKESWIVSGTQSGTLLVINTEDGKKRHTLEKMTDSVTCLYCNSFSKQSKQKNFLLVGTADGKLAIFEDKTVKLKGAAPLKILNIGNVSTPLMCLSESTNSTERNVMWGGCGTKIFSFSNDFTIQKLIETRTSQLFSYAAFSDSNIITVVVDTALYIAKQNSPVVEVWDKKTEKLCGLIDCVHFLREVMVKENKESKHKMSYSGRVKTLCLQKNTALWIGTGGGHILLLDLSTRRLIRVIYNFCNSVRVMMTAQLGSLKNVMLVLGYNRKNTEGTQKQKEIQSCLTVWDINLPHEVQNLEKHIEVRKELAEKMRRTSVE
Kind of assay: LRRK2 AlphaScreen desensitised protein substrate assay. As to conditions: mean pIC50 of multiple test results. It counts as biochemical. In short, it runs like this:
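Compounds (1:4 series, top final 30 μM) were preincubated 30 min at room temperature with 6His-Tev-LRRK2 (1326-2527) solution (80 nM) in Hepes pH 7.2, 10 mM MgCl2. Substrate solution held 200 nM GST-PS-Moesin (400-577) and 2 mM ATP, and the reaction ran 20 min. Phospho-Moesin Thr558 was read by AlphaLisa antibody-bead detection after 2 h.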
Background: Alpha assays give light when donor and acceptor beads are brought close together.

Assay [2] concerns the target T1, 6His-Tev-LRRK2 (1326-2527). Nature of the assay: LRRK2 peptide substrate assay. It counts as biochemical. As to conditions: mean pIC50 of multiple test results. The method in brief:
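Compound (1:4 series, top 30 μM final) preincubated 30 min at RT with the enzyme solution (80 nM) in pH 7.2 Hepes, 10 mM MgCl2 buffer. Reaction was started with substrate solution (2 μM Biotin-LRRKtide, ATP at Km) and run 1–2 h at RT. Phospho-peptide detected by TR-FRET (Eu/APC, 665/620 nm) after EDTA stop.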

[3] abbreviates: stated as threshold, read-out: pIC50 in the LRRK2 alphascreen desensitised protein substrate assay (bounds) (converted).
[4] abbreviates: stated as threshold, read-out: pIC50 in the LRRK2 peptide substrate assay (bounds) (converted).

Take `Cn1cc(-c2cc(C(=O)Nc3cccc(Cl)c3)c(OCc3ccc(F)cc3)cc2C(=O)N2CCOCC2)cn1` [Example 48, N-(3-chlorophenyl)-2-((4-fluorobenzyl)oxy)-5-(1-methyl-1H-pyrazol-4-yl)-4-(morpholine-4-carbonyl)benzamide]: the IC50 in assay [1] (GST-PS-Moesin (400-577) substrate, 2 mM ATP, read-out: LRRK2 alphascreen desensitized protein substrate assay (pIC50) (converted)) is 15.8 nM; in assay [1] (setting [3]), ≤ 316 nM; in assay [2] (Biotin-LRRKtide peptide substrate, ATP at Km, read-out: LRRK2 peptide substrate assay (pIC50) (converted)), 6.31 nM; in assay [2] (setting [4]), ≤ 10 nM.

On to `Cn1cc(-c2cc(C(=O)Nc3cccc(Cl)c3)c(OCc3ccccc3)cc2CN2CCOCC2)cn1` [Example 49, 2-(benzyloxy)-N-(3-chlorophenyl)-5-(1-methyl-1H-pyrazol-4-yl)-4-(morpholinomethyl)benzamide], for which the IC50 in assay [1] (setting [3]) is > 25100 nM; in assay [2] (setting [4]) it was ≤ 100 nM.

For `O=C(Nc1cccc(Cl)c1)c1cc(C(F)(F)F)c(CN2CCOCC2)cc1OCc1ccccc1` [Example 52, 2-(Benzyloxy)-N-(3-chlorophenyl)-4-(morpholinomethyl)-5-(trifluoromethyl)benzamide], the IC50 in assay [1] (setting [3]) was > 25100 nM; in assay [2] (setting [4]) it was ≤ 1260 nM.

Turning to `O=C(Nc1cccc(F)c1)c1cc(C(F)(F)F)c(CN2CCOCC2)cc1OCc1ccccc1` [Example 53, 2-(Benzyloxy)-N-(3-fluorophenyl)-4-(morpholinomethyl)-5-(trifluoromethyl)benzamide], the IC50 in assay [1] (setting [3]) was > 25100 nM; in assay [2] (setting [4]) it was ≤ 10 nM.

For the compound `CN1CCN(C(=O)c2cc(OCc3ccccc3)c(C(=O)Nc3ccnnc3)cc2Cl)CC1` [Example 55, 2-(benzyloxy)-5-chloro-4-(4-methylpiperazine-1-carbonyl)-N-(pyridazin-4-yl)benzamide], the figures for the IC50 in assay [1] (setting [3]) and in assay [2] (setting [4]) were ≤ 316 nM and ≤ 100 nM, respectively.

In the case of `CN1CCN(C(=O)c2cc(OCc3ccccc3)c(C(=O)Nc3cccnn3)cc2Cl)CC1` [Example 56, 2-(benzyloxy)-5-chloro-4-(4-methylpiperazine-1-carbonyl)-N-(pyridazin-3-yl)benzamide], the IC50 in assay [1] (setting [3]) was ≤ 25100 nM; in assay [2] (setting [4]) it was ≤ 100 nM.

On to `CN1CCN(C(=O)c2cc(OCc3ccccc3)c(C(=O)Nc3ccccc3)cc2Cl)CC1` [Example 57, 2-(benzyloxy)-5-chloro-4-(4-methylpiperazine-1-carbonyl)-N-phenylbenzamide], for which the IC50 is ≤ 25100 nM in assay [1] (setting [3]) and ≤ 100 nM in assay [2] (setting [4]).

(Values after patent publication US9365551B2, “2-(benzyloxy) benzamides as LRRK2 kinase inhibitors” (Glaxo Group Limited, priority 2010, dated 2016).)
